Results from the NIST ThermoML archive (doi:10.1016/j.jct.2017.09.005).
Values joined by “and” are separate entries in the source; they are usually repeats but may differ in a detail not shown here. Identical values can stand only once.

Key:
[1] = for vapor or sublimation pressure: Twin ebulliometer; for molar entropy: 101.33 kPa, Small sample (50 mg) DSC; for Critical density: DSC; for Critical temperature: DTA
[2] = molar heat capacity at saturation pressure; conditions: Liquid, Small sample (50 mg) DSC

Cc1c[nH]c(C)c1 [2,4-dimethyl-1H-pyrrole]
[1]
Conditions	mass density [kg/m3]
323.14 K, Liquid, Vibrating tube method	895.5
348.13 K, Liquid, Vibrating tube method	874.8
373.12 K, Liquid, Vibrating tube method	853
398.12 K, Liquid, Vibrating tube method	830.6
423.11 K, Liquid, Vibrating tube method	807.2
448.11 K, Liquid, Vibrating tube method	781.3
645.3 K, Gas, From heat capacities measured by DSC	159
648.6 K, Gas, From heat capacities measured by DSC	220
649 K, Gas, From heat capacities measured by DSC	248
650 K, Liquid, From heat capacities measured by DSC	413
656.5 K, Liquid, From heat capacities measured by DSC	292

[1], Liquid
Conditions	molar entropy [J/K/mol]	vapor or sublimation pressure
338.25 K	–	1.995 kPa
343.72 K	–	2.666 kPa
351.75 K	–	4 kPa
357.76 K	–	5.337 kPa
366.62 K	–	7.992 kPa
373.28 K	–	10.66 kPa
378.68 K	–	13.34 kPa
384.24 K	–	16.66 kPa
388.88 K	–	19.93 kPa
394.96 K	–	25.02 kPa and 25.01 kPa
401.09 K	–	31.17 kPa
407.25 K	–	38.57 kPa
413.43 K	–	47.37 kPa
419.66 K	–	57.81 kPa
425.98 K	–	70.24 kPa
432.21 K	–	84.53 kPa
438.54 K	–	101.33 kPa
440 K	306.38	–
444.91 K	–	120.8 kPa
451.31 K	–	143.27 kPa
457.75 K	–	169.05 kPa
460 K	317.25	–
464.23 K	–	198.53 kPa
470.74 K	–	232.06 kPa
477.28 K	–	270.07 kPa
480 K	327.92	–
500 K	338.4	–
520 K	348.69	–
540 K	358.8	–
560 K	368.76	–
580 K	378.61	–
600 K	388.45	–

Conditions	Critical density [kg/m3]	Critical temperature [K]	molar heat capacity [J/K/mol]
[1], Liquid	285.8	653	–
[2], 440 K	–	–	241.31
[2], 460 K	–	–	247.84
[2], 480 K	–	–	253.77
[2], 500 K	–	–	259.54
[2], 520 K	–	–	265.15
[2], 540 K	–	–	270.8
[2], 560 K	–	–	276.99
[2], 580 K	–	–	284.79
[2], 600 K	–	–	297.37

Cn1cccc1 [N-methylpyrrole]
[1]
Conditions	mass density [kg/m3]
323.14 K, Liquid, Vibrating tube method	879.5
348.13 K, Liquid, Vibrating tube method	854.2
373.12 K, Liquid, Vibrating tube method	828.2
398.12 K, Liquid, Vibrating tube method	800.7
423.11 K, Liquid, Vibrating tube method	772.1
448.11 K, Liquid, Vibrating tube method	741.1
582.9 K, Gas, From heat capacities measured by DSC	137
592 K, Gas, From heat capacities measured by DSC	201
592.7 K, Gas, From heat capacities measured by DSC	220
593.2 K, Liquid, From heat capacities measured by DSC	382
596.1 K, Gas, From heat capacities measured by DSC	257
596.2 K, Liquid, From heat capacities measured by DSC	328
596.5 K, Liquid, From heat capacities measured by DSC	337

[1], Liquid
Conditions	molar entropy [J/K/mol]
360 K	230.1
380 K	239.15
400 K	248.02
420 K	256.74
440 K	265.36
460 K	273.88
480 K	282.3
500 K	290.66
520 K	298.96

Conditions	Critical density [kg/m3]	Critical temperature [K]	molar heat capacity [J/K/mol]
[1], Liquid	299.8	597	–
[2], 360 K	–	–	164.66
[2], 380 K	–	–	170.08
[2], 400 K	–	–	175.89
[2], 420 K	–	–	182.02
[2], 440 K	–	–	188.36
[2], 460 K	–	–	194.81
[2], 480 K	–	–	201.34
[2], 500 K	–	–	208.14
[2], 520 K	–	–	215.72

c1cc[nH]c1 [pyrrole]
[1]
Conditions	mass density [kg/m3]
323.14 K, Liquid, Vibrating tube method	943.9
348.13 K, Liquid, Vibrating tube method	921.2
373.12 K, Liquid, Vibrating tube method	897.8
398.12 K, Liquid, Vibrating tube method	873.5
423.11 K, Liquid, Vibrating tube method	847.6
448.11 K, Liquid, Vibrating tube method	820.2
468.11 K, Liquid, Vibrating tube method	796.1
604.6 K, Gas, From heat capacities measured by DSC	104
623.7 K, Gas, From heat capacities measured by DSC	148
632.4 K, Gas, From heat capacities measured by DSC	220
633.5 K, Liquid, From heat capacities measured by DSC	395
635.4 K, Liquid, From heat capacities measured by DSC	329
637.8 K, Gas, From heat capacities measured by DSC	271

[1], Liquid
Conditions	molar entropy [J/K/mol]
360 K	181.95
380 K	189.82
400 K	197.54
420 K	205.12
440 K	212.58
460 K	219.91
480 K	227.13
500 K	234.23
520 K	241.22
540 K	248.11

Conditions	Critical density [kg/m3]	Critical temperature [K]	molar heat capacity [J/K/mol]
[1], Liquid	314.2	638.5	–
[2], 360 K	–	–	143.21
[2], 380 K	–	–	148.11
[2], 400 K	–	–	152.99
[2], 420 K	–	–	157.84
[2], 440 K	–	–	162.62
[2], 460 K	–	–	167.28
[2], 480 K	–	–	171.79
[2], 500 K	–	–	176.14
[2], 520 K	–	–	180.48
[2], 540 K	–	–	185.06

Cc1ccc(C)[nH]1 [2,5-dimethyl-1H-pyrrole]
[1]
Conditions	mass density [kg/m3]
323.14 K, Liquid, Vibrating tube method	910.8
348.13 K, Liquid, Vibrating tube method	890.3
373.12 K, Liquid, Vibrating tube method	867.7
398.12 K, Liquid, Vibrating tube method	843.9
423.11 K, Liquid, Vibrating tube method	819.6
448.11 K, Liquid, Vibrating tube method	793.5
473.11 K, Liquid, Vibrating tube method	766.5
498.11 K, Liquid, Vibrating tube method	738.1
508.11 K, Liquid, Vibrating tube method	725.6
650 K, Gas, From heat capacities measured by DSC	144
660.8 K, Gas, From heat capacities measured by DSC	257
661.5 K, Liquid, From heat capacities measured by DSC	334
661.7 K, Liquid, From heat capacities measured by DSC	299

[1], Liquid
Conditions	molar entropy [J/K/mol]	vapor or sublimation pressure [kPa]
341.46 K	–	1.997
354.8 K	–	3.994
360.76 K	–	5.333
369.58 K	–	8.007
376.17 K	–	10.67
380 K	263.56	–
381.49 K	–	13.34
386.98 K	–	16.66
391.56 K	–	19.93
397.58 K	–	25.02
400 K	275.4	–
403.63 K	–	31.18
409.71 K	–	38.56
415.81 K	–	47.35
420 K	286.97	–
421.96 K	–	57.8
428.14 K	–	70.1
434.36 K	–	84.53
440 K	298.28	–
440.62 K	–	101.35
446.89 K	–	120.78
453.2 K	–	143.21
459.55 K	–	169.03
460 K	309.34	–
465.94 K	–	198.49
472.36 K	–	232.03
478.82 K	–	270.08
480 K	320.16	–
500 K	330.75	–
520 K	341.13	–
540 K	351.34	–
560 K	361.4	–
580 K	371.4	–
600 K	381.43	–

Conditions	Critical density [kg/m3]	Critical temperature [K]	molar heat capacity [J/K/mol]
[1], Liquid	288.6	662	–
[2], 380 K	–	–	227.58
[2], 400 K	–	–	234.06
[2], 420 K	–	–	240.2
[2], 440 K	–	–	246
[2], 460 K	–	–	251.53
[2], 480 K	–	–	256.87
[2], 500 K	–	–	262.15
[2], 520 K	–	–	267.56
[2], 540 K	–	–	273.45
[2], 560 K	–	–	280.39
[2], 580 K	–	–	289.72
[2], 600 K	–	–	303.59
